Experimental data published in PubChem BioAssay (NCI).
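Compound exposure: 48 hours, 5 concentrations, 96-well plates. The concentration for full growth arrest is given as TGI.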

What was measured:
Assay in all cases: NCI tumour cell line growth inhibition, 48 h
[1] = tested on: UACC-257 melanoma
[2] = tested on: CAKI-1 renal
[3] = tested on: KM12 colon
[4] = tested on: HS 578T breast
[5] = tested on: DU-145 prostate
[6] = tested on: COLO 205 colon
[7] = tested on: NCI-H522 lung
[8] = tested on: PC-3 prostate
[9] = tested on: SN12C renal
[10] = tested on: NCI-H226 lung
[11] = tested on: HL-60(TB) leukemia
[12] = tested on: ACHN renal

Row | Compound | TGI [1] [µM] | TGI [2] [µM] | TGI [3] [µM] | TGI [4] [µM] | TGI [5] [µM] | TGI [6] [µM] | TGI [7] [µM] | TGI [8] [µM] | TGI [9] [µM] | TGI [10] [µM] | TGI [11] [µM] | TGI [12] [µM]
1 | COc1nc2c(c(=O)n1C)N[C@@H]1[C@@H](O)[C@H](O)CO[C@@H]1N2 | > 100 | > 100 | > 100 | > 100 | > 100 | > 100 | > 100 | > 100 | > 100 | > 100 | > 100 | 
2 | Cc1ccc2c3c1O[C@H]1c4nc5ccccc5cc4C[C@@]4(O)[C@@H](C2)N(CC2CC2)CC[C@]314 | 41.1 | 32.7 | 35.6 | 24.7 | 69 | 19.3 | 27.5 | 26.5 | > 100 | 29.5 | 26.1 | 23.4
3 | Cc1nc2ccccc2n1CCc1nc2ccccc2s1 | > 100 | > 100 | > 100 | > 100 | > 100 | > 100 | > 100 | > 100 | > 100 | 42.9 | 60.8 | > 100
4 | COc1ccc(N=C/C=C/Nc2ccc(OC)cc2)cc1 | 18.7 | 12.5 | 9.55 | 38.8 | 32.9 | 16.3 | 23.7 | 26.1 | 8.86 | 32.6 | 8.45 | 29
5 | C=C(Br)CN(C#N)CC(=C)Br | > 100 | > 100 | > 100 | > 100 | > 100 | > 100 | > 100 | > 100 | > 100 | > 100 | > 100 | > 100
6 | Cn1c2ccccc2n2c3nc4ccccc4nc3c(C#N)c12 | > 100 | > 100 | > 100 | > 100 | > 100 | > 100 | > 96.6 | > 100 | > 100 | > 100 | > 100 | > 100
7 | CCn1c2c(c3c(C(=O)OC)c(O)ccc31)C(=O)c1ccccc1C2=O | > 100 | 94.6 | 34.6 | 55.3 | 38.9 | 33 | 23.8 | 42.7 | 29.4 | 34 | 57.3 | 21.9
8 | NNC(=O)c1ccccc1NC(=O)/C(=C/c1ccccc1)NC(=O)c1ccccc1 | > 100 | > 100 | > 100 | > 100 | > 100 | > 100 | > 100 | > 100 | > 100 | > 100 | > 100 | > 100
9 | COc1ccc(-c2cn3c(n2)sc2cc(C)ccc23)cc1 | 24.2 | > 100 | > 100 | 67.5 | > 100 | 19.6 | 51.4 | 50.9 | 88.7 | 62.2 | 23 | > 100
10 | CO[P@]1(=O)O[C@@H](c2ccccc2)[C@H](O)[C@]1(O)c1ccccc1 | > 100 | > 100 | > 100 | > 100 | > 100 | > 100 | > 100 | > 100 | > 100 | > 100 | > 100 | > 100
11 | COC(=O)c1c(O)ccc2c1c1c(n2C)C(=O)c2ccccc2C1=O | > 100 | 92.5 | > 100 | 42.2 | 72.7 | > 100 | > 100 | > 100 | > 100 | > 100 | > 100 | 35.8
12 | CCCCCc1c(CCCC)c(=O)[nH]c2cc(CNCC(OC)OC)ccc12 | 16.2 | 24.6 | 26.4 | 38.7 | 28 | 6.24 | 34.6 | 25.5 | 28.1 | 40.6 | 43.9 | 27.8
13 | CCN(CC)C(=O)CCCCCCCCC1CO1 (stereo not given) | > 100 | > 100 | > 100 | > 100 | > 100 | > 100 | > 100 | > 100 | > 100 | > 100 | > 100 | > 100
14 | S=C1CC(c2ccc(Cl)cc2)Sc2ccccc2N1 (stereo not given) | > 100 | > 100 | > 100 | 40 | > 100 | > 100 | > 100 | > 100 | > 100 | > 100 | > 100 | > 100
15 | O=[N+]([O-])C(=C(NCc1ccccc1)NCc1ccccc1)C(Cl)=C(Cl)Cl | 82.4 | 55.6 | 47.7 | > 100 | > 100 | 36.1 | 79.1 | > 100 | > 100 | 90.7 | 45.9 | 55.9
16 | CC1(C)C2CCC1C(=O)C(C=O)C2 (stereo not given) | > 100 | > 100 | > 100 | > 100 | > 100 | > 100 | > 100 | > 100 | > 100 | > 100 | > 100 | > 100
17 | COc1ccc2c(c1)CC[C@@H]1[C@@H]2CC[C@]2(C)/C(=N/OCCN3CCCCC3)CC[C@@H]12 | 5.34 | 4.17 | 13.2 | 26.6 | 14.7 | 3.18 | 18.9 | 17.7 | 17 | 18.7 | 6.35 | 21.3
18 | CN(C)c1ccc(/C=N/NC2=N/C(=C\c3ccco3)C(=O)N2)cc1 | > 100 | > 100 | > 100 | > 100 | > 100 | > 100 | > 100 | > 100 | > 100 | > 100 | > 100 | > 100
